Assay: In vitro drug release study (dialysis bag, PBS pH 7.4, 37 °C) with kinetic model fitting
Type: physicochemical
Method: In comparison to the release of MEF from suspension, the MEF release from the optimal niosomal formulation was assessed. The dialysis method is the technique of choice for assessing the criteria of drug release from the niosomal formula. MEF release from niosomal formulation and suspension was monitored using a dialysis bag (MWCO12000 Da) at 37 °C for 24 h versus PBS (pH 7.4) to simulate the biological conditions. The optimal niosomes formula and suspension (1 ml of each) were loaded separately inside the dialysis tube, and the released quantity of MEF was evaluated in 100 ml of PBS with continuous stirring. At predefined intervals, (1, 2, 3, 4, 5, 6, 8, and 24 h), 2 ml of freshly formed PBS was added to replace two ml that were withdrawn from the release medium to assess the drug release rate. Lastly, the released concentrations of MEF were determined by examining the samples at 285 nm wavelength using a UV–visible spectrophotometer. This study was performed in triplicate (Targhi et al. [2021]).
The mathematical methodology utilized to determine the kinetics of the total released percentages (cumulative) of MEF from the niosomes formulation was linear regression analysis. These models include Higuchi, Korsmeyer Peppas, First Order, and Zero Order. In the end, the correlation coefficient values were compared to select the model that best fit the data. […]

- Cumulative MEF release (after 24 h, PBS pH 7.4, 37 °C, dialysis bag): 55.36%
- Order of permeation (best-fit release model): Diffusion
Structure (SMILES): Cc1cccc(Nc2ccccc2C(=O)O)c1C [MEF suspension, mefenamic acid]

— publication PMC10725351, “Niosomal formulation of mefenamic acid for enhanced cancer targeting; preparation, characterization and biodistribution study using radiolabeling technique” (Journal of Cancer Research and Clinical Oncology, 2023)
